# From ChEMBL document CHEMBL1146017, “Dipeptide vinyl sultams: synthesis via the Wittig-Horner reaction and activity against papain, falcipain-2 and Plasmodium falciparum” (Bioorg Med Chem Lett, 2006)
# Calls of active or inactive are those of the source. The calls are words filed in the database; no cut-off is given here.
# Experiments:
# Papain (Carica papaya) [1] = biological target: T1, Papain (Carica papaya) (UniProt P00784); assay: Inhibition of papain at 50 uM
# T1 sequence (whole entry): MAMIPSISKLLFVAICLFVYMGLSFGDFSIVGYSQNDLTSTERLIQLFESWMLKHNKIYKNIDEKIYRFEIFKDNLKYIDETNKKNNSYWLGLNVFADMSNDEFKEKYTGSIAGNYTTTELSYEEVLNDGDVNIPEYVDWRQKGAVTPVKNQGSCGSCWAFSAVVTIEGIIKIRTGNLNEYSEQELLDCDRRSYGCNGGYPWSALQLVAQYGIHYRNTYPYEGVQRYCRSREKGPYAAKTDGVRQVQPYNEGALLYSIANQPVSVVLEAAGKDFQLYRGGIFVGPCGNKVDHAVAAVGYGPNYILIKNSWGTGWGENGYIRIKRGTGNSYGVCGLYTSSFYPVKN
# Falcipain 2 = biological target: T2, Falcipain 2 (Plasmodium falciparum, UniProt Q9N6S8); assay: Inhibition of recombinant falcipain2
# T2 sequence (Q9N6S8 whole entry): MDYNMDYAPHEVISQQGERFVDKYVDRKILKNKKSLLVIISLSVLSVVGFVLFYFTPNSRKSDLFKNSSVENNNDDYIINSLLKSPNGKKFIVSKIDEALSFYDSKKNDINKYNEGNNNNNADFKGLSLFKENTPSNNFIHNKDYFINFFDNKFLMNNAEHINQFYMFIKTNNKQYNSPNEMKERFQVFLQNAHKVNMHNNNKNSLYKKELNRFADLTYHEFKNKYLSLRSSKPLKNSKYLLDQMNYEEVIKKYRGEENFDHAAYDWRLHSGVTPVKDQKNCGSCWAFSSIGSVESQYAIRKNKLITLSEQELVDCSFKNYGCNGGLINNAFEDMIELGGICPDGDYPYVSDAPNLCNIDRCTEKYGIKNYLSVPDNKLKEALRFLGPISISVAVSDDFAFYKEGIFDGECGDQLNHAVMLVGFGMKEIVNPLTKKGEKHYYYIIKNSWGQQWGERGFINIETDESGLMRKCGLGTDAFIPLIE
# Plasmodium falciparum = assay: Inhibition of Plasmodium falciparum W2; assay type: functional, organism-based
# Papain (Carica papaya) [2] = biological target: T1, Papain (Carica papaya); assay: Inhibition of papain upto 50 uM after 30 min
Compound,inhibition (Papain (Carica papaya) [1]),IC50 (Falcipain 2) [µM],IC50 (Plasmodium falciparum) [µM],inhibition (Papain (Carica papaya) [2])
CC(C)(C)OC(=O)N[C@H](/C=C1\CCCN(Cc2ccccc2)S1(=O)=O)Cc1ccccc1,inactive,,,
CC(C)C[C@H](NC(=O)N1CCOCC1)C(=O)N[C@H](/C=C1/CCCN(Cc2ccccc2)S1(=O)=O)Cc1ccccc1,inactive,23.6,> 10,
CC(C)C[C@H](NC(=O)N1CCOCC1)C(=O)N[C@H](/C=C1\CCN(Cc2ccccc2)S1(=O)=O)Cc1ccccc1,,48.4,> 10,

# Second part, the compound after the results:
inhibition (Papain (Carica papaya) [1]),IC50 (Falcipain 2) [µM],IC50 (Plasmodium falciparum) [µM],inhibition (Papain (Carica papaya) [2]),Compound
,26.5,> 10,inactive,CC(=O)N[C@@H](Cc1ccccc1)C(=O)N[C@H](/C=C1\CCCN(c2ccccc2)S1(=O)=O)Cc1ccccc1
,31.4,> 10,,CC(C)C[C@H](NC(=O)N1CCOCC1)C(=O)N[C@H](/C=C1\CCCN(c2ccccc2)S1(=O)=O)Cc1ccccc1
inactive,13.7,7.8,,CC(C)C[C@H](NC(=O)N1CCOCC1)C(=O)N[C@H](/C=C1\CCCN(Cc2ccccc2)S1(=O)=O)Cc1ccccc1
